The results in this text go back to patent publication US20110206607A1, “IMIDAZOL (1,2-A)PYRIDINES AND RELATED COMPOUNDS WITH ACTIVITY AT CANNABINOID CB2 RECEPTORS” (priority 2007, published 2011).

T1 sequence (P34972 whole entry): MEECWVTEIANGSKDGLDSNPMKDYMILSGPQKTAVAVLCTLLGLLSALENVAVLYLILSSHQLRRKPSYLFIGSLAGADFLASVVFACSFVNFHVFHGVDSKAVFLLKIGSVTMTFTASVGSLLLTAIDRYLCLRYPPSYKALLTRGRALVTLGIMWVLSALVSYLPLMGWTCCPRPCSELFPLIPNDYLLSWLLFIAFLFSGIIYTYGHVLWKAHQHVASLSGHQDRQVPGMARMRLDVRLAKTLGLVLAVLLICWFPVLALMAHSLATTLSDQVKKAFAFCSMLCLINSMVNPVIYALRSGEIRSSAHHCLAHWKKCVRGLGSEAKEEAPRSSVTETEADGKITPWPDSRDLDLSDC

This assay has as its target T1, human CB2 (Homo sapiens, UniProt P34972).
T1 construct: expressed in transfected cells; host or cells: HEK-293T (transient transfection, membrane preparation)
Nature of the assay: CB2 receptor binding assay, block of [3H]-CP 55,940 binding. Conditions: membranes of HEK-293T cells transfected with human CB2 cDNA; 1.5 nM [3H]-CP 55,940. As for the experimental part:
Membrane preparation—HEK-293T cells were cultured according to ATCC (Manassas, Va.) guidelines and transfected with human CB2 cDNA (SEQ ID NO:1) (Genbank X74328), operably linked to the SV40 promoter, using Polyfect (Qiagen, Valencia, Calif.) or Fugene (Roche, Nutley, N.J.) according to manufacturer's instructions. 48 h after transfection cells were harvested in ice cold membrane buffer (20 mM HEPES, 6 mM MgCl2, 1 mM EDTA, pH 7.2) using a cell scraper. Cells were transferred to a nitrogen cavitation chamber and a pressure of […] was applied for 30 min. The pressure was released and the cell debris was collected and centrifuged at 1000 g at 4° C. for 10 min. The supernatant was collected and the spin was repeated until the supernatant was free of precipitate. Membranes were then pelleted by centrifugation at 12.000 g at 4° C. for 20 min. Membranes were resuspended in an appropriate amount of membrane buffer. The membrane concentration was determined using a BioRad (Hercules, Calif.) protein assay dye reagent according to manufacturer's instructions. Membranes were diluted to 1 mg/ml and aliquots snap-frozen in liquid nitrogen and store at −80° C.
Binding assay—0.5-10 ng of membranes were incubated in binding buffer (50 mM Tris, 0.5 mM EDTA, 0.1% BSA, pH 7.4) in the presence of 1.5 nM radioligand ([^3H]-CP 55,940 Perkin Elmer) and varying concentrations of ligands (total volume 100 μL in a 96 well plate). Membranes were filtered onto a 96 well GF/B filterplate (Packard Bioscience, Shelton, Conn.) and washed with […] wash buffer (25 mM HEPES, 1 mM CaCl2, 5 mM MgCl2, 0.25M NaCl) using a Filtermate 196 Harvester (Packard Instruments, Downers Grove, Ill.). The filter plates were dried under a heat lamp before addition of 50 μL of scintillation fluid to each well (Microscint 20, Packard, Shelton, Conn.). Plates were counted on a Topcount NXT (Packard, Shelton, Conn.).
Data Analysis—Graphs were plotted and KD values were determined by nonlinear regression analysis using Prism software (GraphPad version 4.0, San Diego, Calif., USA).
What is called pKi is the negative decadic logarithm of the Ki, by convention in mol/L. `COc1cc(-c2nc3cccc(C)n3c2Nc2ccc3c(c2)OCCO3)cc(F)c1O` [CR-95] had a pKi of 6.6.
Still for that read-out and setting: the same measure for `COc1cc(O)ccc1-c1nc2ccccn2c1Nc1ccc2c(c1)OCCO2` [CR-79]: 6.7.
The compound `COc1cc(-c2nc3ccccn3c2Nc2ccc3c(c2)OCCO3)cc(F)c1O` [CR-93] had a pKi of 5.7.
On the same count and under the same terms, the same measure for `COc1cccc2nc(-c3c(C)cc(OCCF)cc3C)c(Nc3ccc4c(c3)OCCO4)n12` [CR-21]: 8.3; for `COc1cc(O)ccc1-c1nc2cccc(C)n2c1Nc1ccc2c(c1)OCCO2` [CR-65]: 6.9; for `Cc1cccc2nc(-c3c(O)cccc3F)c(Nc3ccc4c(c3)OCCO4)n12` [CR-86]: 6.6.
Turning to `Cc1cccc2nc(-c3cccc(F)n3)c(Nc3ccc4c(c3)OCCO4)n12` [CR-84], the pKi was 6.7.
On the same count and under the same terms, the same measure for `Cc1cccc2nc(-c3c(F)cc(OCCF)cc3F)c(Nc3ccc4c(c3)OCCO4)n12` [CR-26]: 7.9; for `Cc1cc(O)cc(C)c1-c1nc2ccc(F)cn2c1Nc1ccc2c(c1)OCCO2` [CR-33]: 7.8.
`Cc1ccn2c(Nc3ccc4c(c3)OCCO4)c(-c3ccccn3)nc2c1` [CR-119] came in with a pKi of 5.9.
Still for that read-out and setting: the same measure for `COc1cccc(F)c1-c1nc2cnccn2c1Nc1ccc2c(c1)OCCO2` [CR-125]: 5.9; for `Cc1cccn2c(Nc3ccc4c(c3)OCCO4)c(-c3ccccn3)nc12` [CR-101]: 6.5; for `Cc1cccn2c(Nc3ccc4c(c3)OCO4)c(-c3c(F)cccc3Cl)nc12` [CR-129]: 6.4.
Same read-out and setting: the same measure for `Fc1cccnc1-c1nc2ccccn2c1Nc1ccc2c(c1)OCCO2` [CR-113]: 6.3; for `COc1cc(-c2nc3cc(C)ccn3c2Nc2ccc3c(c2)OCCO3)ccc1O` [CR-60]: 7.1; for `COc1cccc2nc(-c3c(Cl)ncnc3Cl)c(Nc3ccc4c(c3)OCCO4)n12` [CR-22]: 8.2.
The compound `Cc1cccc(C)c1-c1nc2cnccn2c1Nc1ccc2c(c1)OCCO2` [CR-82] had a pKi of 6.7.
The same measure, in the same setting: the same measure for `COc1ccc2nc(-c3c(F)ccc(OCF)c3Cl)c(Nc3ccc4c(c3)OCCO4)n2c1` [CR-16]: 8.6; for `Fc1cc(-c2nc3cnccn3c2Nc2ccc3c(c2)OCCO3)ccn1` [CR-83]: 5.5; for `COc1ccnc2nc(-c3c(F)cccc3Cl)c(Nc3ccc4c(c3)OCCO4)n12` [CR-104]: 6.4.
Same read-out and setting: the same measure for `COc1ccc2nc(-c3c(Cl)cncc3Cl)c(Nc3ccc4c(c3)OCCO4)n2c1` [CR-66]: 6.9.
Same read-out and setting: the same measure for `COc1cccc2nc(-c3c(F)cc(OCF)cc3F)c(Nc3ccc4c(c3)OCCO4)n12` [CR-3]: 8.6.
Compound `Cc1cccc2nc(-c3c(F)cccc3Cl)c(Nc3ccc4c(c3)OCO4)n12` [CR-127] returned a pKi of 7.3.
What is called Ki is the equilibrium dissociation constant of an inhibitor or competing ligand from its target. In turn, `COc1cccc2nc(-c3c(F)ccc(OCC[18F])c3F)c(Nc3ccc4c(c3)OCCO4)n12` [CR-133] showed an inhibition constant (Ki) of 1.58 nM.
In turn, `Cc1ccc2nc(-c3ncccc3F)c(Nc3ccc4c(c3)OCCO4)n2c1` [CR-87] had a pKi of 6.6.
Still for that read-out and setting: the same measure for `COc1cc(-c2nc3ccc(C)cn3c2Nc2ccc3c(c2)OCCO3)cc(F)c1O` [CR-96]: 6.5; for `Cc1cccc2nc(-c3c(F)cncc3F)c(Nc3ccc4c(c3)OCCO4)n12` [CR-52]: 7.3.
`COc1cccc(OC)c1-c1nc2ncccn2c1Nc1ccc2c(c1)OCCO2` [CR-121] had a negative logarithm of the Ki (pKi) of 6.0.
Still for that read-out and setting: the same measure for `Cc1cc(OCCF)cc(C)c1-c1nc2cccc(F)n2c1Nc1ccc2c(c1)OCCO2` [CR-36]: 7.7; for `Cc1ccc2nc(-c3c(Cl)cccc3[N+](=O)[O-])c(Nc3ccc4c(c3)OCCO4)n2c1` [CR-47]: 7.4.
In turn, `COc1cccc2nc(-c3c(Cl)cncc3Cl)c(Nc3ccc4c(c3)OCCO4)n12` [CR-20] showed a negative-log Ki (pKi) of 8.4.
Still for that read-out and setting: the same measure for `COc1cccc2nc(-c3c(F)cccc3Cl)c(Nc3ccc4c(c3)OCCO4)n12` [CR-14]: 8.7.
